One test has as its target human FPR2 (Homo sapiens (Human), UniProt P25090). In words: FPR2 cyclic adenosine monophosphate (cAMP) assay. It is filed as cell-based. As to conditions: read-out: hFPR2 cAMP2 EC50. The text has this: (§1) N-formyl peptide receptors (FPRs) are a family of chemo attractant receptors that facilitate leukocyte response during inflammation. FPRs belong to the seven-transmembrane G protein-coupled receptor superfamily and are linked to inhibitory G-proteins (Gi). Three family members (FPR1, FPR2 and FPR3) have been identified in humans and are predominantly found in myeloid cells with varied distribution and have also been reported in multiple organs and tissues. After agonist binding, the FPRs activate a multitude of physiological pathways, such as intra cellular signaling transduction, Ca^21 mobilization and transcription. The family interacts with a diverse set of ligands that includes proteins, polypeptides and fatty acid metabolites which activate both pro-inflammatory and pro-resolution downstream responses. FPR2 and FPR1 Cyclic Adenosine Monophosphate (cAMP) Assays were used to measure the activity of the compounds in this patent.
(§2) FPR2 and FPR1 Cyclic Adenosine Monophosphate (cAMP) Assays. A mixture of forskolin (5 μM final for FPR2 or 10 μM final for FPR1) and IBMX (200 μM final) were added to 384-well Proxiplates (Perkin-Elmer) pre-dotted with test compounds in DMSO (1% final) at final concentrations in the range of 0.020 nM to 100 μM. Chinese Hamster Ovary cells (CHO) overexpressing human FPR1 or human FPR2 receptors were cultured in F-12 (Ham's) medium supplemented with 10% qualified FBS, 250 μg/ml zeocin and 300 μg/ml hygromycin (Life Technologies). Reactions were initiated by adding 2,000 human FPR2 cells per well or 4,000 human FPR1 cells per well in Dulbecco's PBS (with calcium and magnesium) (Life Technologies) supplemented with 0.1% BSA (Perkin-Elmer). The reaction mixtures were incubated for 30 min at room temperature. The level of intracellular cAMP was determined using the HTRF HiRange cAMP assay reagent kit (Cisbio) according to manufacturer's instruction. Solutions of cryptate conjugated anti-cAMP and d2 flurorophore-labelled cAMP were made in a supplied lysis buffer separately. Upon completion of the reaction, the cells were lysed with equal volume of the d2-cAMP solution and anti-cAMP solution. After a 1-h room temperature incubation, time-resolved fluorescence intensity was measured using the Envision (Perkin-Elmer) at 400 nm excitation and dual emission at 590 nm and 665 nm. A calibration curve was constructed with an external cAMP standard at concentrations ranging from 1 μM to 0.1 μM by plotting the fluorescent intensity ratio from 665 nm emission to the intensity from the 590 nm emission against cAMP concentrations. The potency and activity of a compound to inhibit cAMP production was then determined by fitting to a 4-parametric logistic equation from a plot of cAMP level versus compound concentrations.

The next test addresses human FPR1 (Homo sapiens (Human), UniProt P21462). The experiment in a line: FPR1 cyclic adenosine monophosphate (cAMP) assay. In kind it is cell-based. Particulars: read-out: hFPR1 cAMP EC50.
Text: as §1, §2

Where [1] appears, read: CHO cells overexpressing human FPR2, forskolin 5 μM, IBMX 200 μM, inhibition of cAMP production, HTRF.
[2] abbreviates: CHO cells overexpressing human FPR1, forskolin 10 μM, IBMX 200 μM, inhibition of cAMP production, HTRF.

pEC50: −log10 of the molar value. Like-named read-outs stand apart in the source and are kept apart here. Bounds are passed on as bounds.

Chain of human FPR1 (P21462 whole entry): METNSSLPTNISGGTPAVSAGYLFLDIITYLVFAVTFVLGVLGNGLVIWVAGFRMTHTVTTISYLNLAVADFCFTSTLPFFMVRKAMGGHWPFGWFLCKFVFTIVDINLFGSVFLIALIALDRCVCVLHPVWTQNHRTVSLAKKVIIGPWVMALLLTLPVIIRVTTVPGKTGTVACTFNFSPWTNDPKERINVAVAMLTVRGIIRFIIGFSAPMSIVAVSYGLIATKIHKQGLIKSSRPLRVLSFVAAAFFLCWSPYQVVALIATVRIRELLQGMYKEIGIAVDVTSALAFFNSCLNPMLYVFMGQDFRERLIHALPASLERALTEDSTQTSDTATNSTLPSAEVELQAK
Chain of human FPR2 (P25090 whole entry): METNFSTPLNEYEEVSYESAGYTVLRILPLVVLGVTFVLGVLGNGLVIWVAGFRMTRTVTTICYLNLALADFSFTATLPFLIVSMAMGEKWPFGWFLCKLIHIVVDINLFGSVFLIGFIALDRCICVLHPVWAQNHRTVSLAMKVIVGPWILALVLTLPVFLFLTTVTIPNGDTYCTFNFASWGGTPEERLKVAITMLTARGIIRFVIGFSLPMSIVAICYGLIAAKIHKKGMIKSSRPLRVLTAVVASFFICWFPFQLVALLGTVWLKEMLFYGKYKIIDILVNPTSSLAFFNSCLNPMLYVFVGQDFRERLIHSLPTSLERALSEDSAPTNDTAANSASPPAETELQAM

Take `COc1cc(F)c([C@@H]2CN(c3nccc(N4CCOCC4)c3C(F)(F)F)C(=O)C2NC(=O)N[C@H]2CC[C@H](C(F)F)CC2)c(F)c1` (stereo partly drawn) [Example 1, 1-((3S,4R)-4-(2,6-Difluoro-4-methoxyphenyl)-1-(4-morpholino-3-(trifluoromethyl)pyridin-2-yl)-2-oxopyrrolidin-3-yl)-3-((1r,4S)-4-(difluoromethyl)cyclohexyl) urea]: the values for the pEC50 on human FPR2 (setting [1]) and on human FPR1 (setting [2]) were 7.83 and 5.17, respectively.

Take `CCn1cccc(N2C[C@@H](c3ccc(OC)cc3)[C@H](NC(=O)NC3CCc4cc(Cl)ccc4C3)C2=O)c1=O` (stereo partly drawn) [Example 6]: the pEC50 (in general, the EC50 on a negative log10 scale, so that one unit is a factor of ten) at human FPR2 (setting [1]) was 9.40; on human FPR1 (setting [2]) it was 10.00.

For `COCCn1ccc(C)c(N2C[C@@H](c3c(F)cc(OC)cc3F)[C@H](NC(=O)NC3CCc4cc(OC)ccc4C3)C2=O)c1=O` (stereo partly drawn) [Example 7], the pEC50 was 9.30 on human FPR2 (setting [1]) and 9.15 at human FPR1 (setting [2]).

`COc1cc(F)c([C@@H]2CN(c3c(OC)ccn(C)c3=O)C(=O)[C@H]2NC(=O)NC2CCc3cc(Cl)ccc3C2)c(F)c1` (stereo partly drawn) [Example 8]: the pEC50 at human FPR2 (setting [1]) was 9.22; at human FPR1 (setting [2]), 9.30.

As to `CCn1cccc(N2C[C@@H](c3ccc(OC)cc3)[C@H](NC(=O)NC3CCc4cc(Cl)ccc4C3)C2=O)c1=O` (stereo partly drawn) [Example 9], the pEC50 on human FPR2 (setting [1]) was 9.15; at human FPR1 (setting [2]), 8.22.

In the case of `COCCn1cccc(N2C[C@@H](c3ccc(OC)cc3)[C@H](NC(=O)NC3CCc4cc(OC)ccc4C3)C2=O)c1=O` (stereo partly drawn) [Example 11], the pEC50 on human FPR2 (setting [1]) is 9.10; on human FPR1 (setting [2]), 10.00.

For `CCn1cccc(N2C[C@@H](c3ccc(OC)cc3)[C@H](NC(=O)NC3CCc4cc(OC)ccc4C3)C2=O)c1=O` (stereo partly drawn) [Example 12], the pEC50 is 9.05 on human FPR2 (setting [1]) and 9.10 on human FPR1 (setting [2]).

Turning to `COc1cc(F)c([C@@H]2CN(c3cccn(CCO)c3=O)C(=O)[C@H]2NC(=O)NC2CCc3cc(Cl)ccc3C2)c(F)c1` (stereo partly drawn) [Example 14], the results for the pEC50 on human FPR2 (setting [1]) and at human FPR1 (setting [2]) were 8.85 and 9.10, respectively.

For `COc1cc(F)c([C@H]2[C@H](NC(=O)NC3CCc4cc(OC)ccc4C3)C(=O)N(c3ncccc3OC)[C@H]2C)c(F)c1` (stereo partly drawn) [Example 15], the pEC50 is 8.82 at human FPR2 (setting [1]) and 7.88 on human FPR1 (setting [2]).

As for `COCCn1cccc(N2C[C@@H](c3ccc(OC)cc3)[C@H](NC(=O)NC3CCc4cc(Cl)ccc4C3)C2=O)c1=O` (stereo partly drawn) [Example 16], the values for the negative-log EC50 (pEC50) on human FPR2 (setting [1]) and at human FPR1 (setting [2]) were 8.77 and 8.33, respectively.

With `COCCn1cccc(N2C[C@@H](c3c(F)cc(OC)cc3F)[C@H](NC(=O)NC3CCc4cc(Cl)ccc4C3)C2=O)c1=O` (stereo partly drawn) [Example 17], the values for the pEC50 at human FPR2 (setting [1]) and at human FPR1 (setting [2]) were 8.77 and 9.22, respectively.

As to `COc1cc(F)c([C@H]2[C@H](NC(=O)NC3CCc4cc(OC)ccc4C3)C(=O)N(c3ncccc3OC)[C@H]2C)c(F)c1` (stereo partly drawn) [Example 18], the figures for the pEC50 at human FPR2 (setting [1]) and on human FPR1 (setting [2]) were 8.74 and 9.70, respectively.

`COc1cc(F)c([C@@H]2CN(c3cccn(CCO)c3=O)C(=O)[C@H]2NC(=O)NC2CCc3cc(Cl)ccc3C2)c(F)c1` (stereo partly drawn) [Example 19]: the pEC50 on human FPR2 (setting [1]) is 8.72; on human FPR1 (setting [2]) it was 7.52.

With `COCCn1cccc(N2C[C@@H](c3c(F)cc(OC)cc3F)[C@H](NC(=O)NC3CCc4cc(Cl)ccc4C3)C2=O)c1=O` (stereo partly drawn) [Example 20], the pEC50 at human FPR2 (setting [1]) was 8.59; at human FPR1 (setting [2]), 7.41.

Regarding `COc1cc(F)c([C@@H]2CN(c3cccn(CCO)c3=O)C(=O)[C@H]2NC(=O)NC2CCc3cc(OC)ccc3C2)c(F)c1` (stereo partly drawn) [Example 21], the pEC50 is 8.82 on human FPR2 (setting [1]) and 9.40 on human FPR1 (setting [2]).

For `COCCn1ccc(C)c(N2C[C@@H](c3c(F)cc(OC)cc3F)[C@H](NC(=O)NC3CCc4cc(Cl)ccc4C3)C2=O)c1=O` (stereo partly drawn) [Example 22], the negative logarithm of the EC50 (pEC50) is 8.57 at human FPR2 (setting [1]) and 8.68 at human FPR1 (setting [2]).

On to `COc1cc(F)c([C@@H]2CN(c3ncccc3C(F)(F)F)C(=O)[C@H]2NC(=O)NC2CCc3ccccc3C2)c(F)c1` (stereo partly drawn) [Example 24], for which the pEC50 at human FPR2 (setting [1]) was 8.55; on human FPR1 (setting [2]), 7.74.

As to `COc1cc(F)c([C@@H]2CN(c3nccc(N4C[C@@H](C)N(C)[C@@H](C)C4)c3C(F)(F)F)C(=O)[C@H]2NC(=O)N[C@H]2CC[C@H](C(F)F)CC2)c(F)c1` [Example 25], the pEC50 on human FPR2 (setting [1]) is 8.55; at human FPR1 (setting [2]), 5.79.

`COCCn1cccc(N2C(=O)[C@@H](NC(=O)NC3CCc4cc(Cl)ccc4C3)[C@H](c3c(F)cc(OC)cc3F)[C@@H]2C)c1=O` (stereo partly drawn) [Example 27]: the negative logarithm of the EC50 (pEC50) on human FPR2 (setting [1]) was 8.54; at human FPR1 (setting [2]), 8.60.

For the compound `COc1cc(F)c([C@@H]2CN(c3ncccc3C(F)(F)F)C(=O)[C@H]2NC(=O)NC2COc3cc(OC)ccc3C2)c(F)c1` (stereo partly drawn) [Example 28], the pEC50 is 8.48 on human FPR2 (setting [1]) and 8.52 at human FPR1 (setting [2]).

For the compound `COCCn1cccc(N2C(=O)[C@@H](NC(=O)NC3CCc4cc(OC)ccc4C3)[C@H](c3c(F)cc(OC)cc3F)[C@@H]2C)c1=O` (stereo partly drawn) [Example 29], the results for the pEC50 on human FPR2 (setting [1]) and on human FPR1 (setting [2]) were 8.48 and 8.62, respectively.

Take `COc1cc(F)c([C@@H]2CN(c3nccc(N4CCN(C)CC4)c3C(F)(F)F)C(=O)[C@H]2NC(=O)N[C@H]2CC[C@H](C(F)F)CC2)c(F)c1` [Example 30]: the pEC50 was 8.44 at human FPR2 (setting [1]) and 5.60 on human FPR1 (setting [2]).

As to `COc1cc(F)c([C@@H]2CN(c3ncccc3C(F)(F)F)C(=O)[C@H]2NC(=O)NC2CCc3cc(Cl)ccc3C2)c(F)c1` (stereo partly drawn) [Example 31], the values for the pEC50 on human FPR2 (setting [1]) and on human FPR1 (setting [2]) were 8.42 and 6.96, respectively.

Consider `COc1cc(F)c([C@@H]2CN(c3ncccc3C(F)(F)F)C(=O)[C@H]2NC(=O)N[C@H]2CC[C@H](C(F)F)CC2)c(F)c1` [Example 32], for which the pEC50 is 8.41 at human FPR2 and 5.92 on human FPR1.

As for `COc1cc(F)c([C@@H]2CN(c3ncccc3C(F)(F)F)C(=O)[C@H]2NC(=O)NC2COc3cc(OC)ccc3C2)c(F)c1` (stereo partly drawn) [Example 33], the pEC50 on human FPR2 (setting [1]) is 8.40; at human FPR1 (setting [2]), 8.38.

Turning to `COCCn1cccc(N2C[C@@H](c3c(F)cc(OC)cc3F)[C@H](NC(=O)NC3CCc4cc(OC)ccc4C3)C2=O)c1=O` (stereo partly drawn) [Example 34], the pEC50 on human FPR2 (setting [1]) was 8.38; at human FPR1 (setting [2]) it was 9.52.

Take `COc1ccc([C@H]2C[C@@H]2NC(=O)N[C@@H]2C(=O)N(c3ncccc3C(F)(F)F)C[C@H]2c2c(F)cc(OC)cc2F)cc1` [Example 35]: the pEC50 on human FPR2 (setting [1]) is 8.35; at human FPR1 (setting [2]) it was 7.21.

In the case of `CCn1cccc(N2C[C@@H](c3c(F)cc(OC)cc3F)[C@H](NC(=O)NC3CCc4cc(OC)ccc4C3)C2=O)c1=O` (stereo partly drawn) [Example 37], the pEC50 at human FPR2 (setting [1]) was 8.35; at human FPR1 (setting [2]), 7.96.

Consider `COCCn1ccc(OC)c(N2C[C@@H](c3c(F)cc(OC)cc3F)[C@H](NC(=O)NC3CCc4cc(Cl)ccc4C3)C2=O)c1=O` (stereo partly drawn) [Example 38], for which the figures for the pEC50 at human FPR2 (setting [1]) and on human FPR1 (setting [2]) were 8.35 and 8.89, respectively.

`COCCn1cccc(N2C(=O)[C@@H](NC(=O)NC3CCc4cc(OC)ccc4C3(C)C)[C@H](c3c(F)cc(OC)cc3F)[C@@H]2C)c1=O` (stereo partly drawn) [Example 40]: the pEC50 was 8.28 on human FPR2 (setting [1]) and 6.70 at human FPR1 (setting [2]).

As to `CCn1cccc(N2C[C@@H](c3c(F)cc(OC)cc3F)[C@H](NC(=O)NC3CCc4cc(OC)ccc4C3)C2=O)c1=O` (stereo partly drawn) [Example 41], the pEC50 at human FPR2 (setting [1]) is 8.25; on human FPR1 (setting [2]) it was 9.30.

For the compound `COCCn1cccc(N2C[C@@H](c3ccc(OC)cc3)[C@H](NC(=O)NC3CCc4cc(OC)ccc4C3)C2=O)c1=O` (stereo partly drawn) [Example 42], the values for the pEC50 on human FPR2 (setting [1]) and on human FPR1 (setting [2]) were 8.24 and 8.77, respectively.

Take `COc1cc(F)c([C@@H]2CN(c3ncccc3C(F)(F)F)C(=O)[C@H]2NC(=O)NC2CCc3cc(Cl)ccc3C2)c(F)c1` (stereo partly drawn) [Example 43]: the pEC50 at human FPR2 (setting [1]) is 8.22; on human FPR1 (setting [2]), 8.15.

In the case of `COCCn1cccc(N2C[C@@H](c3c(F)cc(OC)cc3F)[C@H](NC(=O)NC3CCc4cc(OC)ccc4C3(C)C)C2=O)c1=O` (stereo partly drawn) [Example 45], the pEC50 on human FPR2 (setting [1]) was 8.17; at human FPR1 (setting [2]), 6.25.

Take `COc1cc(F)c([C@@H]2CN(c3ncccc3C(F)(F)F)C(=O)[C@H]2NC(=O)NC2CCc3cc(OC)ccc3C2)c(F)c1` (stereo partly drawn) [Example 46]: the pEC50 at human FPR2 (setting [1]) was 8.15; on human FPR1 (setting [2]), 8.82.

On to `COc1cc(F)c([C@@H]2CN(c3ncccc3C(F)(F)F)C(=O)[C@H]2NC(=O)NC2CCc3cc(OC)ccc3C2)c(F)c1` (stereo partly drawn) [Example 47], for which the pEC50 at human FPR2 (setting [1]) is 8.14; at human FPR1 (setting [2]) it was less than 5.00.
